According to patent US20180289620A1, “NANOPARTICLE FORMULATIONS AND USES THEREOF” (Abraxis BioScience, LLC, priority 2008, published 2018):
Where two headings read alike, the source gives them in different places.

How the values were obtained:
[1] = Log P of hydrophobic taxane derivatives; format: physicochemical; conditions: method not stated
[2] = tested on: MX-1 (human breast carcinoma) cells; test: In vitro growth inhibition (cytotoxicity, CellTiter Blue Cell Viability Assay); format: cell-based; conditions: cells exposed 72 hr
Protocol: A cytotoxicity assay was quantitated using the Promega CellTiter Blue Cell Viability Assay. Briefly, cells (5000 cells/well) were plated onto 96-well microtiter plates in RPMI 1640 medium supplemented with 10% FBS and incubated at 37° C. in a humidified 5% CO2 atmosphere. After 24 hr., cells were exposed to various concentrations of hydrophobic taxane derivative in DMSO and cultured for another 72 hr, 100 uL of media were removed and 20 uL of Promega CellTiter Blue reagent were added to each well and shaken to mix. After 4 hours of incubation at 37° C. in a humidified 5% CO2 atmosphere, the plates were read at 544 ex/620 em. The fluorescence produced is proportional to the number of viable cells. After plotting fluorescence produced against drug concentration, the IC50 was calculated as the […] of the resulting non-linear regression.

[3] = Pharmacokinetics of Nab-2 in monkeys; format: in vivo; conditions: cynomolgus monkey; for AUCINF/D / Cmax/D / HL_Lambda_z / AUC(0-inf) / Cmax / Tmax / concentration at 0 hr / concentration at […] / concentration at 0.25 hr / concentration at 0.5 hr / concentration at 1 hr / concentration at 2 hr / concentration at 8 hr: label = analyte; for AUC(0-inf) / Cmax / Tmax / concentration at 0 hr / concentration at […] / concentration at 0.25 hr / concentration at 0.5 hr / concentration at 1 hr / concentration at 2 hr / concentration at 8 hr / clearance / Vd: male, blood; for concentration at […]: time 0.083 hr; for Vd: iv
Excerpt: The day of the initial dose administration was designated Study Day 1, with subsequent days consecutively numbered. Days on study prior to the initial dose administration were consecutively numbered with the final day of acclimation referenced as day −1.
Three non-naïve, male cynomolgus monkeys, confirmed to have no prior exposure to albumin, were assigned to dose groups as specified in Table 6 shown below. Animals weighed 5.4-6.7 kg and were 4 to 7 years of age at study initiation.
All animals were dosed once weekly, on days 1, 8 and 15. Animals in Groups 3 and 4 were administered Nab-2 (lot: ABI139-2-83) at 5 and 10 mg/kg, respectively, and the Group 5 animal was administered Nab-2 at 20, 10 and 10 mg/kg (on days 1, 8 and 15, respectively) via 30 minute intravenous infusion. Clinical observations were performed twice daily and body weights were recorded weekly throughout the study.

Work on `CCCCC(=O)O[C@@H](C(=O)O[C@H]1C[C@@]2(O)[C@@H](OC(=O)c3ccccc3)C3[C@](C)(C(=O)[C@H](O)C(=C1C)C2(C)C)[C@@H](O)C[C@H]1OC[C@@]31OC(C)=O)[C@@H](NC(=O)OC(C)(C)C)c1ccccc1` (stereo partly drawn) [Compound 4, 2′-Valeryl-Docetaxel] yielded a logP [1] of 6.37 and an IC50 [2] of 211 µM.
For `CC(=O)O[C@@]12CO[C@@H]1C[C@H](O)[C@@]1(C)C(=O)[C@H](O)C3=C(C)[C@@H](OC(=O)[C@H](OC(=O)c4ccccc4)[C@@H](NC(=O)OC(C)(C)C)c4ccccc4)C[C@@](O)([C@@H](OC(=O)c4ccccc4)C12)C3(C)C` (stereo partly drawn) [Compound 1, 2′-Benzoyl-Docetaxel], the logP [1] was 6.67 and the IC50 [2] was 38.4 µM.
In the case of `CC(=O)O[C@@]12CO[C@@H]1C[C@H](O)[C@@]1(C)C(=O)[C@H](O)C3=C(C)[C@@H](OC(=O)[C@H](O)[C@@H](NC(=O)OC(C)(C)C)c4ccccc4)C[C@@](O)([C@@H](OC(=O)c4ccccc4)C12)C3(C)C` (stereo partly drawn) [Docetaxel, docetaxel, reference compound], the “Log P” value [1] is reported as 4.20, the AUCINF/D ([3]; Nab-2 IV 5 mg/kg) is reported as 35 kg·ng·h/mL/mg and the Cmax/D ([3]; Nab-2 IV 5 mg/kg) is reported as 8 kg·ng/mL/mg. It also gave an HL_Lambda_z ([3]; Nab-2 IV 5 mg/kg) of 1.4 h, an AUCINF/D ([3]; Nab-2 IV 10 mg/kg) of 31 kg·ng·h/mL/mg and a Cmax/D ([3]; Nab-2 IV 10 mg/kg) of 10 kg·ng/mL/mg. It also gave an HL_Lambda_z ([3]; Nab-2 IV 10 mg/kg) of 3.2 h, an AUCINF/D ([3]; Nab-2 IV 20 mg/kg) of 20 kg·ng·h/mL/mg and a Cmax/D ([3]; Nab-2 IV 20 mg/kg) of 19 kg·ng/mL/mg. It also gave an HL_Lambda_z ([3]; Nab-2 IV 20 mg/kg) of 1.4 h, an AUC(0-inf) ([3]; Nab-2 IV 5 mg/kg) of 175 ng·h/mL and a Cmax ([3]; Nab-2 IV 5 mg/kg) of 41 ng/mL. For the same compound, the Tmax ([3]; Nab-2 IV 5 mg/kg) was 15 min, the concentration at 0 hr ([3]; Nab-2 IV 5 mg/kg) was 0 ng/mL and the concentration at […] ([3]; Nab-2 IV 5 mg/kg) was 36.7 ng/mL. It also gave a concentration at 0.25 hr ([3]; Nab-2 IV 5 mg/kg) of 40.7 ng/mL, a concentration at 0.5 hr ([3]; Nab-2 IV 5 mg/kg) of 35.5 ng/mL and a concentration at 1 hr ([3]; Nab-2 IV 5 mg/kg) of 32.1 ng/mL. It also gave a concentration at 2 hr ([3]; Nab-2 IV 5 mg/kg) of 34.1 ng/mL, a concentration at 8 hr ([3]; Nab-2 IV 5 mg/kg) of 1.15 ng/mL and an AUC(0-inf) ([3]; Nab-2 IV 10 mg/kg) of 314 ng·h/mL. For the same compound, the Cmax ([3]; Nab-2 IV 10 mg/kg) was 99 ng/mL, the concentration at 0 hr ([3]; Nab-2 IV 10 mg/kg) was 0 ng/mL and the concentration at […] ([3]; Nab-2 IV 10 mg/kg) was 99.4 ng/mL. For the same compound, the concentration at 0.25 hr ([3]; Nab-2 IV 10 mg/kg) was 70.1 ng/mL, the concentration at 0.5 hr ([3]; Nab-2 IV 10 mg/kg) was 63.4 ng/mL and the concentration at 1 hr ([3]; Nab-2 IV 10 mg/kg) was 47.5 ng/mL. For the same compound, the concentration at 2 hr ([3]; Nab-2 IV 10 mg/kg) was 44.2 ng/mL, the concentration at 8 hr ([3]; Nab-2 IV 10 mg/kg) was 0 ng/mL and the AUC(0-inf) ([3]; Nab-2 IV 20 mg/kg) was 394 ng·h/mL. It also gave a Cmax ([3]; Nab-2 IV 20 mg/kg) of 382 ng/mL, a concentration at 0 hr ([3]; Nab-2 IV 20 mg/kg) of 0 ng/mL and a concentration at […] ([3]; Nab-2 IV 20 mg/kg) of 382 ng/mL. The concentration at 0.25 hr ([3]; Nab-2 IV 20 mg/kg) was 232 ng/mL, the concentration at 0.5 hr ([3]; Nab-2 IV 20 mg/kg) was 157 ng/mL and the concentration at 1 hr ([3]; Nab-2 IV 20 mg/kg) was 90.5 ng/mL. It also gave a concentration at 2 hr ([3]; Nab-2 IV 20 mg/kg) of 69.2 ng/mL and a concentration at 8 hr ([3]; Nab-2 IV 20 mg/kg) of 0 ng/mL.
`CCCCCC(=O)O[C@@H](C(=O)O[C@H]1C[C@@]2(O)[C@@H](OC(=O)c3ccccc3)C3[C@](C)(C(=O)[C@H](O)C(=C1C)C2(C)C)[C@@H](O)C[C@H]1OC[C@@]31OC(C)=O)[C@@H](NC(=O)OC(C)(C)C)c1ccccc1` (stereo partly drawn) [Compound 2, 2′-Hexanoyl Docetaxel] gave a logP [1] of 6.44, an IC50 [2] of 103 µM and an AUCINF/D ([3]; Nab-2 IV 5 mg/kg) of 723 kg·ng·h/mL/mg. The Cmax/D ([3]; Nab-2 IV 5 mg/kg) was 215 kg·ng/mL/mg, the HL_Lambda_z ([3]; Nab-2 IV 5 mg/kg) was 3.6 h and the AUCINF/D ([3]; Nab-2 IV 10 mg/kg) was 535 kg·ng·h/mL/mg. It also gave a Cmax/D ([3]; Nab-2 IV 10 mg/kg) of 155 kg·ng/mL/mg, an HL_Lambda_z ([3]; Nab-2 IV 10 mg/kg) of 3.7 h and an AUCINF/D ([3]; Nab-2 IV 20 mg/kg) of 393 kg·ng·h/mL/mg. For the same compound, the Cmax/D ([3]; Nab-2 IV 20 mg/kg) was 131 kg·ng/mL/mg, the HL_Lambda_z ([3]; Nab-2 IV 20 mg/kg) was 3.0 h and the clearance ([3]; Nab-2 IV 5 mg/kg) was 23.1 mL/min/kg. The AUC(0-inf) ([3]; Nab-2 IV 5 mg/kg) was 3610 ng·h/mL, the Cmax ([3]; Nab-2 IV 5 mg/kg) was 1070 ng/mL and the Tmax ([3]; Nab-2 IV 5 mg/kg) was 4.98 min. It also gave a concentration at 0 hr ([3]; Nab-2 IV 5 mg/kg) of 0 ng/mL, a concentration at […] ([3]; Nab-2 IV 5 mg/kg) of 1070 ng/mL and a concentration at 0.25 hr ([3]; Nab-2 IV 5 mg/kg) of 940 ng/mL. For the same compound, the concentration at 0.5 hr ([3]; Nab-2 IV 5 mg/kg) was 774 ng/mL, the concentration at 1 hr ([3]; Nab-2 IV 5 mg/kg) was 534 ng/mL and the concentration at 2 hr ([3]; Nab-2 IV 5 mg/kg) was 422 ng/mL. For the same compound, the concentration at 8 hr ([3]; Nab-2 IV 5 mg/kg) was 136 ng/mL, the clearance ([3]; Nab-2 IV 10 mg/kg) was 31.2 mL/min/kg and the AUC(0-inf) ([3]; Nab-2 IV 10 mg/kg) was 5350 ng·h/mL. It also gave a Cmax ([3]; Nab-2 IV 10 mg/kg) of 1550 ng/mL, a Tmax ([3]; Nab-2 IV 10 mg/kg) of 4.98 min and a concentration at 0 hr ([3]; Nab-2 IV 10 mg/kg) of 0 ng/mL. It also gave a concentration at […] ([3]; Nab-2 IV 10 mg/kg) of 1550 ng/mL, a concentration at 0.25 hr ([3]; Nab-2 IV 10 mg/kg) of 1300 ng/mL and a concentration at 0.5 hr ([3]; Nab-2 IV 10 mg/kg) of 936 ng/mL. The concentration at 1 hr ([3]; Nab-2 IV 10 mg/kg) was 734 ng/mL, the concentration at 2 hr ([3]; Nab-2 IV 10 mg/kg) was 657 ng/mL and the concentration at 8 hr ([3]; Nab-2 IV 10 mg/kg) was 202 ng/mL. It also gave a clearance ([3]; Nab-2 IV 20 mg/kg) of 42.4 mL/min/kg, an AUC(0-inf) ([3]; Nab-2 IV 20 mg/kg) of 7860 ng·h/mL and a Cmax ([3]; Nab-2 IV 20 mg/kg) of 2620 ng/mL. It also gave a Tmax ([3]; Nab-2 IV 20 mg/kg) of 15 min, a concentration at 0 hr ([3]; Nab-2 IV 20 mg/kg) of 0 ng/mL and a concentration at […] ([3]; Nab-2 IV 20 mg/kg) of 2390 ng/mL. For the same compound, the concentration at 0.25 hr ([3]; Nab-2 IV 20 mg/kg) was 2620 ng/mL, the concentration at 0.5 hr ([3]; Nab-2 IV 20 mg/kg) was 1820 ng/mL and the concentration at 1 hr ([3]; Nab-2 IV 20 mg/kg) was 1370 ng/mL. It also gave a concentration at 2 hr ([3]; Nab-2 IV 20 mg/kg) of 958 ng/mL, a concentration at 8 hr ([3]; Nab-2 IV 20 mg/kg) of 264 ng/mL and a Vd ([3]; 5 mg/kg, Nab-2 IV 5 mg/kg, read-out: Vss) of 5.84 L/kg. The Vd ([3]; 5 mg/kg, Nab-2 IV 5 mg/kg, read-out: Vz) was 7.18 L/kg, the Vd ([3]; 10 mg/kg, Nab-2 IV 10 mg/kg, read-out: Vss) was 8.12 L/kg and the Vd ([3]; 10 mg/kg, Nab-2 IV 10 mg/kg, read-out: Vz) was 9.93 L/kg. For the same compound, the Vd ([3]; 20 mg/kg, Nab-2 IV 20 mg/kg, read-out: Vss) was 8.74 L/kg, the Vd ([3]; 20 mg/kg, Nab-2 IV 20 mg/kg, read-out: Vz) was 11.2 L/kg and the Vd ([3]; Nab-2 IV 5-20 mg/kg, read-out: volume of distribution Vz) was 7 to 11 L/kg.
Work on `CCCCCCCCCC(=O)O[C@@H](C(=O)O[C@H]1C[C@@]2(O)[C@@H](OC(=O)c3ccccc3)C3[C@](C)(C(=O)[C@H](O)C(=C1C)C2(C)C)[C@@H](O)C[C@H]1OC[C@@]31OC(C)=O)[C@@H](NC(=O)OC(C)(C)C)c1ccccc1` (stereo partly drawn) [Compound 3, 2′-Decanoyl-Docetaxel] yielded an IC50 [2] of 8.8 µM.
`CCC(=O)O[C@@H](C(=O)O[C@H]1C[C@@]2(O)[C@@H](OC(=O)c3ccccc3)C3[C@](C)(C(=O)[C@H](O)C(=C1C)C2(C)C)[C@@H](O)C[C@H]1OC[C@@]31OC(C)=O)[C@@H](NC(=O)OC(C)(C)C)c1ccccc1` (stereo partly drawn) [Compound 5, 2′-Propionyl-Docetaxel] gave a logP [1] of 5.31 and an IC50 [2] of 209 µM.
